Laboratory results: PubChem BioAssay AID248 (DTP/NCI, 2004)
Several values for one entry are separate records, joined by “and”; a condition that tells them apart may be missing. Identical values can stand only once. Inconclusive results and toxic doses are left out.

System: L1210 leukemia ip in BDF1 mice, survival T/C
Assay: NCI In Vivo Anticancer Drug Screen. Data for tumor model L1210 Leukemia (intraperitoneal) in B6D2F1 (BDF1) mice
Details: endpoint: mean survival time, higher = longer survival
Summary of the method: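 Value reflects the ratio of survival in compound-treated mice to survival in vehicle-treated controls, with both groups carrying the same transplanted tumor.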

[1] = dose: 100.0 mg/kg/injection, schedule: Q01DX001 (ip), vehicle: saline
[2] = dose: 200.0 mg/kg/injection, schedule: Q01DX001 (ip), vehicle: saline
[3] = dose: 400.0 mg/kg/injection, schedule: Q01DX001 (ip), vehicle: saline

CC1(C)OC(=O)C(C#N)C1c1ccc(Cl)cc1 (stereo unspecified)
T/C [1]: 101 % of control | T/C [2]: 95 % of control | T/C [3]: 95 % of control

COC(=O)c1cccc(O)c1O
T/C (dose: 100.0 mg/kg/injection, schedule: Q01DX005 (ip), vehicle: other): 96 % of control | T/C (dose: 100.0 mg/kg/injection, schedule: Q01DX009 (ip), vehicle: other): 114 % of control | T/C (dose: 200.0 mg/kg/injection, schedule: Q01DX005 (ip), vehicle: other): 100 % of control | T/C (dose: 200.0 mg/kg/injection, schedule: Q01DX009 (ip), vehicle: other): 107 % of control | T/C (dose: 400.0 mg/kg/injection, schedule: Q01DX005 (ip), vehicle: other): 104 % of control | T/C (dose: 400.0 mg/kg/injection, schedule: Q01DX009 (ip), vehicle: other): 88 % of control

O=C1CC2OCC=C3CN4CCC56c7ccccc7N1C5C2C3CC46 (stereo unspecified) (tested in a mixture with another compound)
T/C (dose: 0.12 mg/kg/injection, schedule: Q04DX003 (ip), vehicle: saline + Tween-80 + alkali): 102 % of control | T/C (dose: 0.12 mg/kg/injection, schedule: Q04DX003 (ip), vehicle: saline): 104 % of control | T/C (dose: 0.19 mg/kg/injection, schedule: Q04DX003 (ip), vehicle: alcohol): 106 % of control | T/C (dose: 0.19 mg/kg/injection, schedule: Q04DX003 (ip), vehicle: saline + Tween-80 + alkali): 100 % of control | T/C (dose: 0.19 mg/kg/injection, schedule: Q04DX003 (ip), vehicle: saline): 104 % of control | T/C (dose: 0.25 mg/kg/injection, schedule: Q04DX003 (ip), vehicle: Klucel (hydroxypropylcellulose) (HPC)): 101 % of control | T/C (dose: 0.28 mg/kg/injection, schedule: Q04DX003 (ip), vehicle: saline + Tween-80 + alkali): 98 % of control | T/C (dose: 0.28 mg/kg/injection, schedule: Q04DX003 (ip), vehicle: saline): 104 % of control | T/C (dose: 0.39 mg/kg/injection, schedule: Q01DX009 (ip), vehicle: saline): 98 % of control and 95 % of control | T/C (dose: 0.39 mg/kg/injection, schedule: Q04DX003 (ip), vehicle: alcohol): 103 % of control | T/C (dose: 0.5 mg/kg/injection, schedule: Q04DX003 (ip), vehicle: Klucel (hydroxypropylcellulose) (HPC)): 93 % of control | T/C (dose: 0.75 mg/kg/injection, schedule: Q01DX009 (ip), vehicle: Klucel (hydroxypropylcellulose) (HPC)): 92 % of control | T/C (dose: 0.78 mg/kg/injection, schedule: Q01DX009 (ip), vehicle: saline): 101 % of control and 110 % of control | T/C (dose: 0.78 mg/kg/injection, schedule: Q04DX003 (ip), vehicle: alcohol): 103 % of control | T/C (dose: 0.78 mg/kg/injection, schedule: Q04DX003 (ip), vehicle: saline + alcohol): 102 % of control | T/C (dose: 0.78 mg/kg/injection, schedule: Q04DX003 (ip), vehicle: saline): 100 % of control | T/C (dose: 1.0 mg/kg/injection, schedule: Q04DX003 (ip), vehicle: Klucel (hydroxypropylcellulose) (HPC)): 101 % of control | T/C (dose: 1.5 mg/kg/injection, schedule: Q01DX009 (ip), vehicle: Klucel (hydroxypropylcellulose) (HPC)): 97 % of control | T/C (dose: 1.5 mg/kg/injection, schedule: Q04DX003 (ip), vehicle: Klucel (hydroxypropylcellulose) (HPC)): 100 % of control | T/C (dose: 1.56 mg/kg/injection, schedule: Q01DX009 (ip), vehicle: saline): 90 % of control and 100 % of control | T/C (dose: 1.56 mg/kg/injection, schedule: Q04DX003 (ip), vehicle: alcohol): 93 % of control | T/C (dose: 1.56 mg/kg/injection, schedule: Q04DX003 (ip), vehicle: saline + alcohol): 93 % of control | T/C (dose: 1.56 mg/kg/injection, schedule: Q04DX003 (ip), vehicle: saline): 93 % of control | T/C (dose: 6.0 mg/kg/injection, schedule: Q04DX003 (ip), vehicle: Klucel (hydroxypropylcellulose) (HPC)): 110 % of control

O=C(Cn1ccc(=O)[nH]c1=O)Nc1ccc(C(=O)O)cc1
T/C [1]: 96 % of control | T/C [2]: 111 % of control | T/C [3]: 96 % of control

C(=N\Nc1nc2ccccc2s1)/c1ccnc2ccccc12
T/C (dose: 100.0 mg/kg/injection, schedule: Q01DX009 (ip), vehicle: Klucel (hydroxypropylcellulose) (HPC)): 102 % of control | T/C (dose: 200.0 mg/kg/injection, schedule: Q01DX009 (ip), vehicle: Klucel (hydroxypropylcellulose) (HPC)): 101 % of control | T/C (dose: 400.0 mg/kg/injection, schedule: Q01DX009 (ip), vehicle: Klucel (hydroxypropylcellulose) (HPC)): 96 % of control

O=C(c1ccccc1)c1ccc(-c2ccccc2)cc1
T/C (dose: 87.5 mg/kg/injection, schedule: Q04DX003 (ip), vehicle: Klucel (hydroxypropylcellulose) (HPC)): 97 % of control | T/C (dose: 175.0 mg/kg/injection, schedule: Q04DX003 (ip), vehicle: Klucel (hydroxypropylcellulose) (HPC)): 95 % of control | T/C (dose: 350.0 mg/kg/injection, schedule: Q04DX003 (ip), vehicle: Klucel (hydroxypropylcellulose) (HPC)): 97 % of control

CC1CN1c1cc(O)c(N2CC2C)cc1O (stereo unspecified)
T/C (dose: 0.25 mg/kg/injection, schedule: Q01DX009 (ip), vehicle: saline): 100 % of control | T/C (dose: 0.5 mg/kg/injection, schedule: Q01DX009 (ip), vehicle: saline): 92 % of control | T/C (dose: 0.5 mg/kg/injection, schedule: Q01DX Z (ip), vehicle: methylcellulose (MC)): 110 % of control | T/C (dose: 0.8 mg/kg/injection, schedule: Q01DX Z (ip), vehicle: methylcellulose (MC)): 111 % of control | T/C (dose: 1.0 mg/kg/injection, schedule: Q01DX009 (ip), vehicle: saline): 118 % of control | T/C (dose: 1.2 mg/kg/injection, schedule: Q01DX Z (ip), vehicle: carboxymethylcellulose (CMC)): 115 % of control | T/C (dose: 1.2 mg/kg/injection, schedule: Q01DX Z (ip), vehicle: methylcellulose (MC)): 109 % of control and 123 % of control | T/C (dose: 1.8 mg/kg/injection, schedule: Q01DX Z (ip), vehicle: carboxymethylcellulose (CMC)): 121 % of control | T/C (dose: 2.0 mg/kg/injection, schedule: Q01DX009 (ip), vehicle: saline): 118 % of control | T/C (dose: 2.7 mg/kg/injection, schedule: Q01DX Z (ip), vehicle: methylcellulose (MC)): 171 % of control | T/C (dose: 4.0 mg/kg/injection, schedule: Q01DX Z (ip), vehicle: carboxymethylcellulose (CMC)): 120 % of control | T/C (dose: 4.0 mg/kg/injection, schedule: Q01DX Z (ip), vehicle: methylcellulose (MC)): 109 % of control and 155 % of control and 212 % of control | T/C (dose: 5.0 mg/kg/injection, schedule: Q01DX009 (ip), vehicle: saline): 150 % of control | T/C (dose: 6.0 mg/kg/injection, schedule: Q01DX Z (ip), vehicle: carboxymethylcellulose (CMC)): 108 % of control | T/C (dose: 6.0 mg/kg/injection, schedule: Q01DX Z (ip), vehicle: methylcellulose (MC)): 172 % of control and 180 % of control | T/C (dose: 9.0 mg/kg/injection, schedule: Q01DX Z (ip), vehicle: methylcellulose (MC)): 155 % of control and 174 % of control | T/C (dose: 10.0 mg/kg/injection, schedule: Q01DX009 (ip), vehicle: saline): 121 % of control | T/C (dose: 13.5 mg/kg/injection, schedule: Q01DX Z (ip), vehicle: methylcellulose (MC)): 114 % of control | T/C (dose: 20.0 mg/kg/injection, schedule: Q01DX009 (ip), vehicle: saline): 101 % of control | T/C (dose: 20.0 mg/kg/injection, schedule: Q01DX Z (ip), vehicle: methylcellulose (MC)): 90 % of control

CCN(CC)CC(=O)CC12CC3CC(CC(C3)C1)C2
T/C (dose: 0.8 mg/kg/injection, schedule: Q04DX002 (ip), vehicle: saline): 93 % of control | T/C (dose: 1.6 mg/kg/injection, schedule: Q04DX002 (ip), vehicle: saline): 97 % of control | T/C (dose: 3.1 mg/kg/injection, schedule: Q04DX002 (ip), vehicle: saline): 101 % of control | T/C (dose: 6.25 mg/kg/injection, schedule: Q04DX002 (ip), vehicle: saline): 97 % of control

CN1CCCCCC(=N\O)/C(=N/O)CCCCC1
T/C (dose: 50.0 mg/kg/injection, schedule: Q01DX001 (ip), vehicle: saline): 101 % of control | T/C [1]: 103 % of control | T/C [2]: 100 % of control

O=C(O)c1ccc(Cl)cc1F
T/C (dose: 100.0 mg/kg/injection, schedule: Q04DX002 (ip), vehicle: Klucel (hydroxypropylcellulose) (HPC)): 97 % of control | T/C (dose: 200.0 mg/kg/injection, schedule: Q04DX002 (ip), vehicle: Klucel (hydroxypropylcellulose) (HPC)): 108 % of control | T/C (dose: 400.0 mg/kg/injection, schedule: Q04DX002 (ip), vehicle: Klucel (hydroxypropylcellulose) (HPC)): 97 % of control

Nc1ncnc2c1ccn2Cc1ccccc1
T/C (dose: 50.0 mg/kg/injection, schedule: Q01DX001 (ip), vehicle: other): 111 % of control | T/C (dose: 100.0 mg/kg/injection, schedule: Q01DX001 (ip), vehicle: other): 97 % of control | T/C (dose: 200.0 mg/kg/injection, schedule: Q01DX001 (ip), vehicle: other): 97 % of control | T/C (dose: 400.0 mg/kg/injection, schedule: Q01DX001 (ip), vehicle: other): 103 % of control
